In patent publication US20250263396A1, “CRYSTALLINE FORMS OF 3-(5-(2-HYDROXY-2- METHYLPROPOXY)-6-METHYPYRAZIN-2-YL)-1H-INDOLE-7-CARBONITRILE” (NIDO BIOSCIENCES, INC., priority 2024, published 2025):
Read-outs that look alike come from different tables or passages of the source.

What was measured:
[1] = Equilibration with solvents; type: physicochemical
Procedure: Obtained suspensions were filtered through a 0.45 μm nylon membrane filter by centrifugation at 14,000 rpm. Solid parts (wet cakes) were investigated by XRPD. For samples with different XRPD patterns, additional analysis including DSC, TGA, ^1H-NMR were performed.
(§1) Obtained suspensions were filtered through a 0.45 μm nylon membrane filter by centrifugation at 14,000 rpm.
as §1

[2] = Form change on heating, dehydration or desolvation (TGA, DSC, variable temperature XRPD); type: physicochemical; conditions: heated above 176° C. using milled Form P, variable temperature XRPD
Procedure: Relative stability of the anhydrates Form R and Form P was investigated by variable temperature XRPD and competitive equilibration experiments.
Relative stability of the anhydrates Form B, Form X, Form Y and Form C was investigated by variable temperature XRPD. Form B converted to Form X, Form Y and Form C after heating to 150° C., 176° C. and 180° C., respectively.

[3] = 24 hours; for XRPD: residual solids; for pH: supernatant
Procedure: Non-milled Form P (10 mg, purity 100%) was weighed into a 20 mL glass vial. 5 mL of solubility medium was added. Obtained suspensions were stirred at 37° C. at 400 rpm and sampled at 24 hours. The samples were centrifuged at 37 C at 14,000 rpm for 5 min. Supernatants were analyzed by HPLC and pH meter for solubility and pH value, respectively. Residual solids (wet cakes) from the 24 hours samples were also characterized by XRPD to determine physical form.

[4] = wet cake in sealed bottle
Procedure: Wet cake chemical stability of Form P at 40° C., 50° C., 60° C. was evaluated.

[5] = physchem; conditions: water, thermodynamic from solid, Approximate solubility
Procedure: Form P (5 mg, purity 100%) was weighed to a 2 mL glass vial. 20 μL aliquots of each solvent were added to dissolve the drug substance at 25 C. […] Vortex and sonication were applied to assist dissolution. Max. volume of each solvent added is 1 mL. For obtained suspensions (Exp. ID 1, 10 and 11) after addition of 1 mL solvent at 25° C., they were placed at 50° C. Approximate solubility was determined by visual observation.

[6] = pH 1.2 HCl buffer (0.1N), 37° C.
[7] = pH 3 citrate buffer (50 mM), 37° C.
[8] = pH 5 acetate buffer (50 mM), 37° C.
[9] = pH 7 phosphate buffer (50 mM), 37° C.

With Cc1nc(-c2c[nH]c3c(C#N)cccc23)cnc1OCC(C)(C)O [Form P, 3-(5-(2-hydroxy-2-methylpropoxy)-6-methylpyrazin-2-yl)-1H-indole-7-carbonitrile] the XRPD after equilibration ([1]; Acetone/water (v:v = 30:70) a.w. = 0.92, 50° C., 1 week) was “Form P”, the XRPD after equilibration ([1]; Acetonitrile, 25° C., 2 weeks) was “Form P” and the XRPD after equilibration ([1]; Acetonitrile, 50° C., 1 week) was “Form P”. For the same molecule, the XRPD after equilibration ([1]; DMSO, 25° C., 2 weeks) was “Form U”, the “Comments (appearance)” value ([1]; DMSO, 50° C., 1 week, (500 mg/mL)) was “Clear solution” and the XRPD after equilibration ([1]; DMSO/water (v:v = 40:60) a.w. = 0.77, 50° C., 1 week) was “Form P”. The XRPD after equilibration ([1]; Ethanol, 25° C., 2 weeks) was “Form P”, the XRPD after equilibration ([1]; Ethanol, 50° C., 1 week) was “Form P” and the XRPD after equilibration ([1]; Ethanol/water (v:v = 40:60) a.w. = 0.91, 25° C., 2 weeks) was “Form P”. For the same molecule, the XRPD after equilibration ([1]; Ethanol/water (v:v = 40:60) a.w. = 0.91, 50° C., 1 week) was “Form P”, the XRPD after equilibration ([1]; Ethyl acetate, 25° C., 2 weeks) was “Form P” and the XRPD after equilibration ([1]; Ethyl acetate, 50° C., 1 week) was “Form P”. The XRPD after equilibration ([1]; Heptane, 25° C., 2 weeks) was “Form P”, the XRPD after equilibration ([1]; Heptane, 50° C., 1 week) was “Form P” and the XRPD after equilibration ([1]; Isopropyl acetate, 25° C., 2 weeks) was “Form P”. The XRPD after equilibration ([1]; Isopropyl acetate, 50° C., 1 week) was “Form P”, the XRPD after equilibration ([1]; MEK, 25° C., 2 weeks) was “Form P” and the XRPD after equilibration ([1]; MEK, 50° C., 1 week) was “Form P”. The XRPD after equilibration ([1]; MTBE, 25° C., 2 weeks) was “Form P”, the XRPD after equilibration ([1]; MTBE, 50° C., 1 week) was “Form P” and the XRPD after equilibration ([1]; Methanol, 25° C., 2 weeks) was “Form B + Form W”. For the same molecule, the XRPD after equilibration ([1]; Methanol, 50° C., 1 week) was “Form P”, the XRPD after equilibration ([1]; NMP, 25° C., 2 weeks) was “Form Q” and the “Comments (appearance)” value ([1]; NMP, 50° C., 1 week, (500 mg/mL)) was “Clear solution”. The XRPD after equilibration ([1]; THF, 25° C., 2 weeks) was “Form P”, the “Comments (appearance)” value ([1]; THF, 50° C., 1 week, (250 mg/mL)) was “Clear solution” and the “Comments (appearance)” value ([1]; THF/water (v:v = 80:20) a.w. = 0.91, 50° C., 1 week, (500 mg/mL)) was “Clear solution”. The XRPD after equilibration ([1]; Toluene, 25° C., 2 weeks) was “Form P”, the XRPD after equilibration ([1]; Toluene, 50° C., 1 week) was “Form P” and the XRPD after equilibration ([1]; Water, 25° C., 2 weeks) was “Form P”. The XRPD after equilibration ([1]; Water, 50° C., 1 week) was “Form P”, the Form after heating [2] was “converted to Form R” and the XRPD ([3]; FaSSGF, pH 1.6, 37° C.) was “Form P”. For the same molecule, the XRPD ([3]; FaSSIF-v1, pH 6.5, 37° C.) was “Form P”, the XRPD ([3]; FeSSIF-v1, pH 5.0, 37° C.) was “Form P” and the XRPD ([3]; Water, 37° C.) was “Form P”. The XRPD [3, 6] was “Form P”, the XRPD [3, 7] was “Form P” and the XRPD [3, 8] was “Form P + one additional peak (It”. For the same molecule, the XRPD [3, 9] was “Form P”, the pH ([3]; FaSSGF, pH 1.6, 37° C.) was 1.5 and the pH ([3]; FaSSIF-v1, pH 6.5, 37° C.) was 6.4. The pH ([3]; FeSSIF-v1, pH 5.0, 37° C.) was 4.9, the pH ([3]; Water, 37° C.) was 7.7 and the pH [3, 6] was 1.1. For the same molecule, the pH [3, 7] was 3.0, the pH [3, 8] was 4.9 and the pH [3, 9] was 6.9. The Purity after holding ([4]; 0 h) was “Purity: 100%”, the Purity after holding ([4]; 40° C., 22 h) was 100% and the Purity after holding ([4]; 40° C., 4 d) was 100%. It also gave a Purity after holding ([4]; 50° C., 22 h) of 100%, a Purity after holding ([4]; 50° C., 4 d) of 100% and a Purity after holding ([4]; 60° C., 22 h) of 100%. The Purity after holding ([4]; 60° C., 4 d) was 100%, the solubility ([5]; 25 °C) was under 5000 µg/mL and the solubility ([5]; 50 °C) was under 5000 µg/mL.
